Results from patent US20180325914A1, “INCREASING STORAGE OF VITAMIN A, VITAMIN D AND/OR LIPIDS” (Salk Institute for Biological Studies, priority 2014, published 2018).

Tested on: primary HSCs
[1] = mRNA-Seq expression, primary HSCs, day 6 with JQ1

Cc1sc2c(c1C)C(c1ccc(Cl)cc1)=N[C@@H](CC(=O)OC(C)(C)C)c1nnc(C)n1-2 [JQ1, (S)-tert-butyl 2-(4-(4-chlorophenyl)-2,3,9-trimethyl-6H-thieno[3,2-f][1,2,4]triazolo[4,3-a][1,4]diazepin-6-yl)acetate]
Elfn1 value_2 (Day_6_JQ1) [1]: 0.4141 | Eln value_2 (Day_6_JQ1) [1]: 0.6077 | Esrp2 value_2 (Day_6_JQ1) [1]: 0.7459 | Etv4 value_2 (Day_6_JQ1) [1]: 1.116 | F3 value_2 (Day_6_JQ1) [1]: 32.9312 | Fam132b value_2 (Day_6_JQ1) [1]: 0.6136 | Fam198b value_2 (Day_6_JQ1) [1]: 1.907 | Fblim1 value_2 (Day_6_JQ1) [1]: 12.2302 | Fibin value_2 (Day_6_JQ1) [1]: 1.847 | Fkbp10 value_2 (Day_6_JQ1) [1]: 27.4534 | Fkbp11 value_2 (Day_6_JQ1) [1]: 6.955 | Fst value_2 (Day_6_JQ1) [1]: 3.079 | Fxyd6 value_2 (Day_6_JQ1) [1]: 0.9921 | Gbx2 value_2 (Day_6_JQ1) [1]: 0.4331 | Gjb3 value_2 (Day_6_JQ1) [1]: 0.08229 | Gjb5 value_2 (Day_6_JQ1) [1]: 0.1388 | Gm12824 value_2 (Day_6_JQ1) [1]: 0.8107 | Gpr176 value_2 (Day_6_JQ1) [1]: 5.413 | Has2 value_2 (Day_6_JQ1) [1]: 1.812 | Hebp2 value_2 (Day_6_JQ1) [1]: 0.7684 | Hhipl1 value_2 (Day_6_JQ1) [1]: 0.517 | Hsd11b1 value_2 (Day_6_JQ1) [1]: 3.839 | Hspb2 value_2 (Day_6_JQ1) [1]: 6.826 | Hspb7 value_2 (Day_6_JQ1) [1]: 0.2986 | Htra3 value_2 (Day_6_JQ1) [1]: 1.896 | Ivl value_2 (Day_6_JQ1) [1]: 0.5056 | Jph2 value_2 (Day_6_JQ1) [1]: 3.451 | Kcnmb1 value_2 (Day_6_JQ1) [1]: 0.01726 | Kctd15 value_2 (Day_6_JQ1) [1]: 1.124 | Lmod1 value_2 (Day_6_JQ1) [1]: 5.533 | Lox14 value_2 (Day_6_JQ1) [1]: 6.181 | Lox value_2 (Day_6_JQ1) [1]: 102.497 | Ltbp1 value_2 (Day_6_JQ1) [1]: 3.833 | Ltbp2 value_2 (Day_6_JQ1) [1]: 4.7344 | Mfap4 value_2 (Day_6_JQ1) [1]: 0.2994 | Mfap5 value_2 (Day_6_JQ1) [1]: 1.011 | Mgp value_2 (Day_6_JQ1) [1]: 22.5571 | Mmp23 value_2 (Day_6_JQ1) [1]: 6.014 | Mrap value_2 (Day_6_JQ1) [1]: 0.2549 | Mrgprf value_2 (Day_6_JQ1) [1]: 1.3677 | Myl9 value_2 (Day_6_JQ1) [1]: 142.669 | Naalad2 value_2 (Day_6_JQ1) [1]: 0.9739 | Nfatc4 value_2 (Day_6_JQ1) [1]: 2.235 | Npr3 value_2 (Day_6_JQ1) [1]: 8.408 | Olfm2 value_2 (Day_6_JQ1) [1]: 0.8372 | P2ry14 value_2 (Day_6_JQ1) [1]: 6.946 | P4ha3 value_2 (Day_6_JQ1) [1]: 1.335 | Pappa value_2 (Day_6_JQ1) [1]: 0.6606 | Pdgfc value_2 (Day_6_JQ1) [1]: 1.527 | Pdgfrl value_2 (Day_6_JQ1) [1]: 0.4741 | Pdlim3 value_2 (Day_6_JQ1) [1]: 0.5953 | Pla1a value_2 (Day_6_JQ1) [1]: 2.047 | Postn value_2 (Day_6_JQ1) [1]: 58.0905 | Prelid2 value_2 (Day_6_JQ1) [1]: 1.71 | Prkar1b value_2 (Day_6_JQ1) [1]: 1.1011 | Pstpip1 value_2 (Day_6_JQ1) [1]: 0.2607 | Ptgs2 value_2 (Day_6_JQ1) [1]: 2.221 | Ptprn value_2 (Day_6_JQ1) [1]: 5.204 | Rap1gap2 value_2 (Day_6_JQ1) [1]: 2.58 | Rasl12 value_2 (Day_6_JQ1) [1]: 0.3063 | Rgs4 value_2 (Day_6_JQ1) [1]: 2.345 | Saa3 value_2 (Day_6_JQ1) [1]: 10.7546 | Serpinb9b value_2 (Day_6_JQ1) [1]: 4.136 | Serpinf1 value_2 (Day_6_JQ1) [1]: 66.5572 | Sertad4 value_2 (Day_6_JQ1) [1]: 0.6904 | Slc16a3 value_2 (Day_6_JQ1) [1]: 10.7025 | Sorcs2 value_2 (Day_6_JQ1) [1]: 0.1588 | Spon2 value_2 (Day_6_JQ1) [1]: 12.3682 | Srpx2 value_2 (Day_6_JQ1) [1]: 2.998 | Stra6 value_2 (Day_6_JQ1) [1]: 0.07484 | Syt13 value_2 (Day_6_JQ1) [1]: 6.257 | Tfpi2 value_2 (Day_6_JQ1) [1]: 4.486 | Thy1 value_2 (Day_6_JQ1) [1]: 2.222 | Tll1 value_2 (Day_6_JQ1) [1]: 0.3916 | Tmeff1 value_2 (Day_6_JQ1) [1]: 5.181 | Tmem200a value_2 (Day_6_JQ1) [1]: 0.3192 | Tnfsf8 value_2 (Day_6_JQ1) [1]: 0.1581 | Tnfsf13b value_2 (Day_6_JQ1) [1]: 1.119 | Tnfsf15 value_2 (Day_6_JQ1) [1]: 0.07599 | Tnfsf18 value_2 (Day_6_JQ1) [1]: 0.24 | Trpc6 value_2 (Day_6_JQ1) [1]: 0.05189 | Wbscr17 value_2 (Day_6_JQ1) [1]: 0.7256 | Wisp1 value_2 (Day_6_JQ1) [1]: 4.262 | Wisp2 value_2 (Day_6_JQ1) [1]: 1.369 | Wnt11 value_2 (Day_6_JQ1) [1]: 1.299 | Zfp827 value_2 (Day_6_JQ1) [1]: 0.4625 | 1110003E01Rik value_2 (mRNA-Seq, sample Day_6_JQ1): 69.1288 | 1600014C10Rik value_2 (mRNA-Seq, sample Day_6_JQ1): 21.437 | 2310022B05Rik value_2 (mRNA-Seq, sample Day_6_JQ1): 132.474 | Adam15 value_2 (mRNA-Seq, sample Day_6_JQ1): 78.5951 | Afap1l2 value_2 (mRNA-Seq, sample Day_6_JQ1): 58.9193 | Ahdc1 value_2 (mRNA-Seq, sample Day_6_JQ1): 13.24 | Apln value_2 (mRNA-Seq, sample Day_6_JQ1): 16.0329 | Arhgap11a value_2 (mRNA-Seq, sample Day_6_JQ1): 12.9839 | Arhgef17 value_2 (mRNA-Seq, sample Day_6_JQ1): 35.1441 | Aurkb value_2 (mRNA-Seq, sample Day_6_JQ1): 18.2306 | BC018242 value_2 (mRNA-Seq, sample Day_6_JQ1): 17.3751 | BC031353 value_2 (mRNA-Seq, sample Day_6_JQ1): 10.0028 | BC046404 value_2 (mRNA-Seq, sample Day_6_JQ1): 27.3155 | Bambi value_2 (mRNA-Seq, sample Day_6_JQ1): 20.2742 | Basp1 value_2 (mRNA-Seq, sample Day_6_JQ1): 173.108 | Bicc1 value_2 (mRNA-Seq, sample Day_6_JQ1): 86.5801 | Bphl value_2 (mRNA-Seq, sample Day_6_JQ1): 18.4476 | C330027C09Rik value_2 (mRNA-Seq, sample Day_6_JQ1): 10.1673 | Cadm4 value_2 (mRNA-Seq, sample Day_6_JQ1): 23.19 | Cbx5 value_2 (mRNA-Seq, sample Day_6_JQ1): 28.9059
